Source: patent US20150335535A1, “DENTAL ADHESIVE” (DENTSPLY INTERNATIONAL INC., priority 2008, published 2015)
One block for each compound: values may come before it.

Test: Thermal stability of test formulation on storage at 60° C. until thermal polymerization
Assay type: physicochemical
Settings: for sufficient thermal stability: inhibitor in test formulation; for thermal stability of formulation FBE-05.44.01: all columns dark shaded
Protocol: A series of test formulations containing different thermal polymerization inhibitors was prepared in order to illustrate the surprising thermal stability of a dental adhesive composition according to the present invention. Test formulations containing different inhibitors or inhibitor concentrations were stored in Prime&Bond NT bottles ([…]) at 60° C. until thermal polymerization. The bottles were daily examined by shaking the bottle, whereby the acoustical test turned out to be rather sensitive, and by taking a sample with a pipette. When polymerization seemed to have occurred or after a certain minimum storage time (20 days) the bottles were sliced open and the solution were examined visually. According to the results of the above described Arrhenius investigation at least a thermal stability of about 11 days at 60° C. is necessary so that the dental adhesive composition may be stored at room temperature. The Test Formulation containing different inhibitors in different amounts, was investigated regarding its thermal stability by storing these formulations at 60° C. The samples were daily examined. In case of polymerization a gel or a solid, polymerized body was observed. The dark shaded columns represent formulations with inhibitors, respectively inhibitor concentrations, which were polymerized after the depicted time at 60° C. The light shaded columns represent formulations, which were not polymerized until the depicted time. Usually after 20 days the investigation was terminated.

SMILES: Cc1cc(C(C)(C)C)c(O)c(C(C)(C)C)c1 [BHT, 2,6-di-tert.-butyl-p-cresol]
- sufficient thermal stability (storage at 60° C.): failed to provide a sufficient thermal stability

SMILES: CC(C)(c1ccc(O)cc1)c1ccc(O)cc1 [Bisphenol A]
- thermal stability of formulation FBE-05.44.01 (storage at 60° C.): polymerized after the recorded time

SMILES: COc1ccc(O)cc1 [HQME, hydroquinone monomethylether]
- visual examination after slicing open the bottle (0.49 mol % inhibitor in FBE-05.44.01, storage at 60° C.): small pieces of gel were found at the bottom
- visual examination after slicing open the bottle (0.697 mol % inhibitor in FBE-05.44.01, storage at 60° C.): small pieces of gel were found at the bottom
- sufficient thermal stability (storage at 60° C.): failed to provide a sufficient thermal stability

SMILES: CC(C)(C)c1ccc(O)c(O)c1 [TBC]
- visual examination after slicing open the bottle (0.193 mol % inhibitor, storage at 60° C.): some pieces of gel were found at the bottom

SMILES: COc1ccc(O)c(C(C)(C)C)c1 [tert.-Butylhydroxyanisole, tert.-Butylhydroxyanisol]
- visual examination after slicing open the bottles (0.047 mol % inhibitor, after 14 days at 60° C.): some pieces of gel
- visual examination after slicing open the bottles (0.047 mol % inhibitor, after 20 days at 60° C.): some small pieces of gel
- visual examination after slicing open the bottles (0.096 mol % inhibitor, after 20 days at 60° C.): No indication of polymerization
- visual examination after slicing open the bottles (0.147 mol % inhibitor, after 20 days at 60° C.): No indication of polymerization

The remaining lines, values ahead:

- stabilization effect (inhibitor 0.15 mol % in test formulation, storage at 60° C.): some stabilization effect
SMILES: Oc1ccc(O)cc1 [HQ, hydroquinone]

- thermal stability of formulation FBE-05.44.01 (storage at 60° C.): polymerized after the recorded time
SMILES: CCCOC(=O)c1cc(O)c(O)c(O)c1 [PG, Propyl gallate]

- visual examination after slicing open the bottles (0.013 mol % inhibitor, after 20 days at 60° C.): polymerization was found
- visual examination after slicing open the bottles (after 14 days and after 20 days at 60° C., FBE-05.44.01): No hints of a polymerization were found
SMILES: CC(C)(C)c1cc(O)ccc1O [TBHQ, tert-Butylhydroquinone]
